Assay results taken from ChEMBL document CHEMBL1201862, “PubChem BioAssay data set” (2004).
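Tested at 5 concentrations; 48 h exposure; 96-well plates; endpoints linearly interpolated, else capped at highest concentration. GI50 = concentration required for 50% inhibition of growth.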 The source made the active and inactive calls. No stated cut-off is given here; in the data, active = GI50 up to about 1.1 µM and inactive = higher.

Legend:
Assay in all cases: NCI-60 cell line screen, 48 h
HOP-92 = tested on: HOP-92
HL-60 = tested on: HL-60
M14 = tested on: M14
OVCAR-3 = tested on: OVCAR-3
KM12 = tested on: KM12
K562 = tested on: K562
MDA-N = tested on: MDA-N
SK-MEL-2 = tested on: SK-MEL-2
NCI-H460 = tested on: NCI-H460
SNB-75 = tested on: SNB-75
Hs-578T = tested on: Hs-578T
ACHN = tested on: ACHN
CAKI-1 = tested on: CAKI-1
RPMI-8226 = tested on: RPMI-8226
HCT-15 = tested on: HCT-15
SF-295 = tested on: SF-295
MCF7 = tested on: MCF7
SN12C = tested on: SN12C
NCI/ADR-RES = tested on: NCI/ADR-RES
T47D = tested on: T47D
HT-29 = tested on: HT-29
NCI-H23 = tested on: NCI-H23
SK-MEL-28 = tested on: SK-MEL-28
IGROV-1 = tested on: IGROV-1
PC-3 = tested on: PC-3
TK-10 = tested on: TK-10
DU-145 = tested on: DU-145
OVCAR-5 = tested on: OVCAR-5
HOP-62 = tested on: HOP-62
OVCAR-4 = tested on: OVCAR-4
UACC-62 = tested on: UACC-62
SNB-19 = tested on: SNB-19
A549 = tested on: A549
MOLT-4 = tested on: MOLT-4
SF-539 = tested on: SF-539
786-0 = tested on: 786-0
NCI-H226 = tested on: NCI-H226
OVCAR-8 = tested on: OVCAR-8
Malme-3M = tested on: Malme-3M
RXF 393 = tested on: RXF 393
SW-620 = tested on: SW-620
MDA-MB-231 = tested on: MDA-MB-231
A498 = tested on: A498
HCC 2998 = tested on: HCC 2998
SF-268 = tested on: SF-268
UACC-257 = tested on: UACC-257
SK-OV-3 = tested on: SK-OV-3
COLO 205 = tested on: COLO 205
LOX IMVI = tested on: LOX IMVI
CCRF-CEM = tested on: CCRF-CEM
BT-549 = tested on: BT-549
HCT-116 = tested on: HCT-116
U-251 = tested on: U-251
EKVX = tested on: EKVX
MDA-MB-435 = tested on: MDA-MB-435
NCI-H522 = tested on: NCI-H522
UO-31 = tested on: UO-31
SK-MEL-5 = tested on: SK-MEL-5

With `CCOC(=O)/C(C(=O)NC(C)C)=C(/N)N1CCOCC1` the GI50 (HOP-92) was > 100 µM (inactive), the GI50 (HL-60) was > 100 µM (inactive) and the GI50 (M14) was > 100 µM (inactive). For the same compound, the GI50 (OVCAR-3) was > 100 µM (inactive), the GI50 (KM12) was > 100 µM (inactive) and the GI50 (K562) was > 100 µM (inactive). For the same compound, the GI50 (MDA-N) was > 100 µM (inactive), the GI50 (SK-MEL-2) was > 100 µM (inactive) and the GI50 (NCI-H460) was > 100 µM (inactive). The GI50 (SNB-75) was > 100 µM (inactive), the GI50 (Hs-578T) was > 100 µM (inactive) and the GI50 (ACHN) was > 100 µM (inactive). For the same compound, the GI50 (CAKI-1) was > 100 µM (inactive), the GI50 (RPMI-8226) was > 100 µM (inactive) and the GI50 (HCT-15) was over 100 µM. For the same compound, the GI50 (SF-295) was > 100 µM (inactive), the GI50 (MCF7) was > 100 µM (inactive) and the GI50 (SN12C) was > 100 µM (inactive). For the same compound, the GI50 (NCI/ADR-RES) was > 100 µM (inactive), the GI50 (T47D) was > 100 µM (inactive) and the GI50 (HT-29) was > 100 µM (inactive). The GI50 (NCI-H23) was > 100 µM (inactive), the GI50 (SK-MEL-28) was > 100 µM (inactive) and the GI50 (IGROV-1) was > 100 µM (inactive). For the same compound, the GI50 (PC-3) was > 100 µM (inactive), the GI50 (TK-10) was > 100 µM (inactive) and the GI50 (DU-145) was > 100 µM (inactive). For the same compound, the GI50 (OVCAR-5) was > 100 µM (inactive), the GI50 (HOP-62) was > 100 µM (inactive) and the GI50 (OVCAR-4) was > 100 µM (inactive). The GI50 (UACC-62) was > 100 µM (inactive), the GI50 (SNB-19) was > 100 µM (inactive) and the GI50 (A549) was > 100 µM (inactive). For the same compound, the GI50 (MOLT-4) was > 100 µM (inactive), the GI50 (SF-539) was > 100 µM (inactive) and the GI50 (786-0) was > 100 µM (inactive). The GI50 (NCI-H226) was > 100 µM (inactive), the GI50 (OVCAR-8) was > 100 µM (inactive) and the GI50 (Malme-3M) was > 100 µM (inactive). The GI50 (RXF 393) was > 100 µM (inactive), the GI50 (SW-620) was > 100 µM (inactive) and the GI50 (MDA-MB-231) was > 100 µM (inactive). The GI50 (A498) was > 100 µM (inactive), the GI50 (HCC 2998) was > 100 µM (inactive) and the GI50 (SF-268) was > 100 µM (inactive). The GI50 (UACC-257) was > 100 µM (inactive), the GI50 (SK-OV-3) was > 100 µM (inactive) and the GI50 (COLO 205) was > 100 µM (inactive). The GI50 (LOX IMVI) was > 100 µM (inactive), the GI50 (CCRF-CEM) was > 100 µM (inactive) and the GI50 (BT-549) was > 100 µM (inactive). For the same compound, the GI50 (HCT-116) was > 100 µM (inactive), the GI50 (U-251) was > 100 µM (inactive) and the GI50 (EKVX) was > 100 µM (inactive). For the same compound, the GI50 (MDA-MB-435) was > 100 µM (inactive) and the GI50 (NCI-H522) was > 100 µM (inactive).
For `O=C(NN=C1CCCCC1)NN=C1CCCCC1`, the GI50 (M14) was > 100 µM (inactive), the GI50 (OVCAR-3) was > 100 µM (inactive) and the GI50 (KM12) was > 100 µM (inactive). The GI50 (K562) was > 100 µM (inactive), the GI50 (MDA-N) was > 100 µM (inactive) and the GI50 (NCI-H460) was > 100 µM (inactive). The GI50 (SNB-75) was > 100 µM (inactive), the GI50 (Hs-578T) was > 100 µM (inactive) and the GI50 (CAKI-1) was > 100 µM (inactive). For the same compound, the GI50 (HCT-15) was over 100 µM, the GI50 (SF-295) was > 100 µM (inactive) and the GI50 (MCF7) was > 100 µM (inactive). The GI50 (SN12C) was > 100 µM (inactive), the GI50 (NCI/ADR-RES) was > 100 µM (inactive) and the GI50 (T47D) was > 100 µM (inactive). The GI50 (HT-29) was > 100 µM (inactive), the GI50 (NCI-H23) was > 100 µM (inactive) and the GI50 (SK-MEL-28) was > 100 µM (inactive). For the same compound, the GI50 (IGROV-1) was > 100 µM (inactive), the GI50 (PC-3) was > 100 µM (inactive) and the GI50 (TK-10) was > 100 µM (inactive). The GI50 (DU-145) was > 100 µM (inactive), the GI50 (OVCAR-5) was > 100 µM (inactive) and the GI50 (HOP-62) was > 100 µM (inactive). For the same compound, the GI50 (OVCAR-4) was > 100 µM (inactive), the GI50 (UACC-62) was > 100 µM (inactive) and the GI50 (SNB-19) was > 100 µM (inactive). For the same compound, the GI50 (MOLT-4) was > 100 µM (inactive), the GI50 (UO-31) was > 100 µM (inactive) and the GI50 (OVCAR-8) was > 100 µM (inactive). The GI50 (Malme-3M) was > 100 µM (inactive), the GI50 (SK-MEL-5) was > 100 µM (inactive) and the GI50 (RXF 393) was > 100 µM (inactive). For the same compound, the GI50 (SW-620) was > 100 µM (inactive), the GI50 (MDA-MB-231) was > 100 µM (inactive) and the GI50 (UACC-257) was > 100 µM (inactive). For the same compound, the GI50 (SK-OV-3) was > 100 µM (inactive), the GI50 (COLO 205) was > 100 µM (inactive) and the GI50 (LOX IMVI) was > 100 µM (inactive). The GI50 (CCRF-CEM) was > 100 µM (inactive), the GI50 (BT-549) was > 100 µM (inactive) and the GI50 (HCT-116) was > 100 µM (inactive). The GI50 (U-251) was > 100 µM (inactive) and the GI50 (MDA-MB-435) was > 100 µM (inactive).
With `COc1ccc2c(c1)CC[C@@H]1[C@@H]2CC[C@]2(C)[C@@H](O)/C(=C/c3ccncc3)C[C@@H]12` the GI50 (HOP-92) was 14 µM (inactive), the GI50 (HL-60) was 7.98 µM (inactive) and the GI50 (M14) was 11.3 µM (inactive). The GI50 (OVCAR-3) was 18.5 µM (inactive), the GI50 (KM12) was 9.71 µM (inactive) and the GI50 (MDA-N) was 12.4 µM (inactive). The GI50 (SK-MEL-2) was 16.3 µM (inactive), the GI50 (NCI-H460) was 14.2 µM (inactive) and the GI50 (SNB-75) was 10.4 µM (inactive). For the same compound, the GI50 (Hs-578T) was 12.8 µM (inactive), the GI50 (ACHN) was 26.5 µM (inactive) and the GI50 (CAKI-1) was 14.8 µM (inactive). The GI50 (RPMI-8226) was 3.69 µM (inactive), the GI50 (HCT-15) was 6.95 µM and the GI50 (SF-295) was 10.5 µM (inactive). The GI50 (MCF7) was 16.6 µM (inactive), the GI50 (SN12C) was 22.8 µM (inactive) and the GI50 (NCI/ADR-RES) was 15 µM (inactive). The GI50 (T47D) was 5.14 µM (inactive), the GI50 (HT-29) was 3.99 µM (inactive) and the GI50 (NCI-H23) was 12.8 µM (inactive). For the same compound, the GI50 (SK-MEL-28) was 15.3 µM (inactive), the GI50 (IGROV-1) was 14.9 µM (inactive) and the GI50 (PC-3) was 10.1 µM (inactive). The GI50 (TK-10) was 18.9 µM (inactive), the GI50 (DU-145) was 18 µM (inactive) and the GI50 (OVCAR-5) was 12.5 µM (inactive). The GI50 (HOP-62) was 16.9 µM (inactive), the GI50 (OVCAR-4) was 23.2 µM (inactive) and the GI50 (UACC-62) was 13.8 µM (inactive). For the same compound, the GI50 (SNB-19) was 18.8 µM (inactive), the GI50 (A549) was 9.84 µM (inactive) and the GI50 (MOLT-4) was 4.65 µM (inactive). The GI50 (UO-31) was 14 µM (inactive), the GI50 (786-0) was 14.2 µM (inactive) and the GI50 (NCI-H226) was 20.1 µM (inactive). The GI50 (OVCAR-8) was 14.4 µM (inactive), the GI50 (Malme-3M) was 12.3 µM (inactive) and the GI50 (SK-MEL-5) was 9.75 µM (inactive). For the same compound, the GI50 (RXF 393) was 4.25 µM (inactive), the GI50 (SW-620) was 6.41 µM (inactive) and the GI50 (MDA-MB-231) was 14.2 µM (inactive). The GI50 (A498) was 17.5 µM (inactive), the GI50 (HCC 2998) was 8.59 µM (inactive) and the GI50 (SF-268) was 12.6 µM (inactive). The GI50 (UACC-257) was 16.6 µM (inactive), the GI50 (SK-OV-3) was 21.2 µM (inactive) and the GI50 (COLO 205) was 3.94 µM (inactive). The GI50 (CCRF-CEM) was 11.1 µM (inactive), the GI50 (BT-549) was 15.7 µM (inactive) and the GI50 (HCT-116) was 11 µM (inactive). The GI50 (U-251) was 12.4 µM (inactive), the GI50 (EKVX) was 18.5 µM (inactive) and the GI50 (MDA-MB-435) was 9.77 µM (inactive). For the same compound, the GI50 (NCI-H522) was 14 µM (inactive).
